Assay [1] deals with T1, Protein deacetylase HDAC6 (Homo sapiens, UniProt Q9UBN7).
T1 sequence (Q9UBN7 whole entry): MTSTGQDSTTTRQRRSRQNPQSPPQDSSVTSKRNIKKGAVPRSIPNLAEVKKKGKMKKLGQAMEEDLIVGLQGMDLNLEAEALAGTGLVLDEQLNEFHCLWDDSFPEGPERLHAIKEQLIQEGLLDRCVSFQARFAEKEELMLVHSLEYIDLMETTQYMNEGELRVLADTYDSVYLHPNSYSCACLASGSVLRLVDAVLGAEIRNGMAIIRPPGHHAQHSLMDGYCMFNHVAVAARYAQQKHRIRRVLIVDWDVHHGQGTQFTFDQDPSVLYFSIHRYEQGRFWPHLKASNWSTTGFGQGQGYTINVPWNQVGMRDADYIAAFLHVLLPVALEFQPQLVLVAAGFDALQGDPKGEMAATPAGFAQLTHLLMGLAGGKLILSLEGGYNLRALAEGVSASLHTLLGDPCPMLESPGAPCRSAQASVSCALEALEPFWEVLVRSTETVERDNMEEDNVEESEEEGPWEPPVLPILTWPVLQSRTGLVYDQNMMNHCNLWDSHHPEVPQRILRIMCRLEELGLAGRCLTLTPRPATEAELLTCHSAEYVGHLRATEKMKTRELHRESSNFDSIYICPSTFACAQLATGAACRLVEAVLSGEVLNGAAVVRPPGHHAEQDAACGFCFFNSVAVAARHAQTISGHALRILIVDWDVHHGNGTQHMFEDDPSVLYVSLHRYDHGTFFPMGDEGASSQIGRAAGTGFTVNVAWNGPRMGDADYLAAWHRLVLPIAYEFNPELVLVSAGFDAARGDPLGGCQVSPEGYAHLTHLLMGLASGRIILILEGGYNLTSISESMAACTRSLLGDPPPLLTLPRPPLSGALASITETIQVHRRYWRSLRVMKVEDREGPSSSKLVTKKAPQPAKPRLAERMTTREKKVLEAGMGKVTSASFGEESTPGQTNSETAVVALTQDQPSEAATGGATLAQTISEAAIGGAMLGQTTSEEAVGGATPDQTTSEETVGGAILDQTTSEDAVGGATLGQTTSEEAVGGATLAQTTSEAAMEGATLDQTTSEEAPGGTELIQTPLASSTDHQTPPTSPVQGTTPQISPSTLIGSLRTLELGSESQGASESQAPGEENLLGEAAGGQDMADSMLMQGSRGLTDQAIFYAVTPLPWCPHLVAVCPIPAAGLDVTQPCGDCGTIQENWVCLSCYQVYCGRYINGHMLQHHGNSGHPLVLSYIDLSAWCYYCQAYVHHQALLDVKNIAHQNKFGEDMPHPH
The assay can be described thus: Inhibition of human recombinant HDAC6 using RHKKAcAMC as substrate by fluorescence assay.

Assay [2] deals with MV4-11. The assay can be described thus: Inhibition of class 1 HDAC in human MV4-11 cells assessed as hyperacetylation of histone H3 at 200 nM after 24 hrs by Western blot analysis. In kind it is cell-based. In general terms: In western blotting, separated proteins are transferred to a membrane and probed.
For assay [3], the target named is T2, Protein deacetylase HDAC6 (Homo sapiens) (UniProt Q9UBN7).
T2 sequence (whole entry): T1 sequence (Q9UBN7 whole entry)
As to the kind of experiment: Inhibition of HDAC6 in human MV4-11 cells assessed as accumulation of acetylated alpha-tubulin at 50 nM after 24 hrs by Western blot analysis. It counts as cell-based.

The target of another assay is Histone deacetylase 1 (Homo sapiens, UniProt Q13547). As to the kind of experiment: Inhibition of human recombinant HDAC1 using RHKKAcAMC as substrate by fluorescence assay.
The target in another assay is Histone deacetylase 2 (Homo sapiens, UniProt Q92769). The assay can be described thus: Inhibition of human recombinant HDAC2 using RHKKAcAMC as substrate by fluorescence assay.
For the next assay, the target named is Histone deacetylase 4 (Homo sapiens, UniProt P56524). The assay can be described thus: Inhibition of human recombinant HDAC4 using fluorogenic trifluoroacetyl lysine as substrate by fluorescence assay.
Another assay addresses T3, Histone deacetylase 8 (Homo sapiens, UniProt Q9BY41).
T3 sequence (Q9BY41 whole entry): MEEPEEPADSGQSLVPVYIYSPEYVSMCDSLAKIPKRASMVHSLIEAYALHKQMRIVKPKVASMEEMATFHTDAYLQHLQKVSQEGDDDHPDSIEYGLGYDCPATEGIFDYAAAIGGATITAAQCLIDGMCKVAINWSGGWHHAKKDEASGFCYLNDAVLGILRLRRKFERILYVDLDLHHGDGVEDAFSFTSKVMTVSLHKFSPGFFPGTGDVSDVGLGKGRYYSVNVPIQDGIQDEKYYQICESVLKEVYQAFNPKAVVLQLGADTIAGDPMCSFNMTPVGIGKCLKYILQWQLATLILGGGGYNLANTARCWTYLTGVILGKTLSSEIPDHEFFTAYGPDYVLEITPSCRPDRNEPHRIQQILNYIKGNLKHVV
As to the kind of experiment: Inhibition of human recombinant HDAC8 using RHKAcKAcAMC as substrate by fluorescence assay.

Assay [4] addresses T4, Polyamine deacetylase HDAC10 (Homo sapiens, UniProt Q969S8).
T4 sequence (Q969S8 whole entry): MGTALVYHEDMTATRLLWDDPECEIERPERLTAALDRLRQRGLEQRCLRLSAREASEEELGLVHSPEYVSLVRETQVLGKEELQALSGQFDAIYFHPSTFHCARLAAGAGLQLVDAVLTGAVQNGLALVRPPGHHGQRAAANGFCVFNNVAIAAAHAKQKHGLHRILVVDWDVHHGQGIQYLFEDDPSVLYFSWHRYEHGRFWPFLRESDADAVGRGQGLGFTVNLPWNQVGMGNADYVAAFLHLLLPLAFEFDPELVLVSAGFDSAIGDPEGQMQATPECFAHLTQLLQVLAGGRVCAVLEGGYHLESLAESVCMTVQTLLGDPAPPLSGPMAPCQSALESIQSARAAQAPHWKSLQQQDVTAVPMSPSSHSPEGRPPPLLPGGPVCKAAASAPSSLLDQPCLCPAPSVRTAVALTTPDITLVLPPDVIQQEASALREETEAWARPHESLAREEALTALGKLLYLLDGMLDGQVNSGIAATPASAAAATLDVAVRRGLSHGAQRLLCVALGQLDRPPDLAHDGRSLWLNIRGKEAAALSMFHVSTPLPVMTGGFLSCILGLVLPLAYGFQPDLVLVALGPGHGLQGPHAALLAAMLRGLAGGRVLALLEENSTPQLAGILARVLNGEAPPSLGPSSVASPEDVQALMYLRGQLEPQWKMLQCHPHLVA
The assay can be described thus: Inhibition of human recombinant HDAC10 using RHKKAcAMC as substrate by fluorescence assay.

Assay [5] is filed under the species Homo sapiens. The assay can be described thus: Selectivity ratio of IC50 for human recombinant HDAC2 to IC50 for human recombinant HDAC6.
Assay [6] is filed under the species Homo sapiens. As to the kind of experiment: Selectivity ratio of IC50 for human recombinant HDAC8 to IC50 for human recombinant HDAC6.
The species named for assay [7] is Homo sapiens. As to the kind of experiment: Selectivity ratio of IC50 for human recombinant HDAC1 to IC50 for human recombinant HDAC6.
For assay [8], the species on record is Homo sapiens. As to the kind of experiment: Selectivity ratio of IC50 for human recombinant HDAC4 to IC50 for human recombinant HDAC6.
Assay [9] relates to MV4-11. As to the kind of experiment: Inhibition of class 1 HDAC in human MV4-11 cells assessed as hyperacetylation of histone H3 at higher concentration after 24 hrs by Western blot analysis. It counts as cell-based.
Assay [10] has as its target T2, Protein deacetylase HDAC6 (Homo sapiens). As to the kind of experiment: Inhibition of HDAC6 in human MV4-11 cells assessed as accumulation of acetylated alpha-tubulin at 200 nM after 10 to 1440 mins by Western blot analysis. In kind it is cell-based.
Assay [11] has the same target. The assay can be described thus: Inhibition of HDAC6 in human MV4-11 cells assessed as accumulation of acetylated alpha-tubulin at 200 nM by Western blot analysis. In kind it is cell-based. The conditions noted are these: TDE = time-dependent effect.
For assay [12], the system named is MV4-11. As to the kind of experiment: Induction of apoptosis in human MV4-11 cells up to 1 uM after 24 to 48 hrs by Annexin V-PI staining based flow cytometry. It counts as functional, cell-based. (In general: Flow cytometry measures light scatter and fluorescence of single cells or particles in a stream.)
Assay [13] deals with MV4-11. The assay can be described thus: Cell cycle arrest in human MV4-11 cells up to 1 uM after 24 to 48 hrs by propidium iodide staining based flow cytometry. It counts as functional.
Assay [14] relates to MV4-11. As to the kind of experiment: Induction of apoptosis in human MV4-11 cells at 30 nM after 24 to 48 hrs by Annexin V-PI staining based flow cytometry. It counts as functional, cell-based.
The test system of assay [15] is MV4-11. The assay can be described thus: Induction of apoptosis in human MV4-11 cells at 5 uM after 24 to 48 hrs by Annexin V-PI staining based flow cytometry. In kind it is functional, cell-based.

Active and inactive are the calls of the source. The rule behind the calls is not given here.

Chain of Histone deacetylase 1 (Q13547 whole entry): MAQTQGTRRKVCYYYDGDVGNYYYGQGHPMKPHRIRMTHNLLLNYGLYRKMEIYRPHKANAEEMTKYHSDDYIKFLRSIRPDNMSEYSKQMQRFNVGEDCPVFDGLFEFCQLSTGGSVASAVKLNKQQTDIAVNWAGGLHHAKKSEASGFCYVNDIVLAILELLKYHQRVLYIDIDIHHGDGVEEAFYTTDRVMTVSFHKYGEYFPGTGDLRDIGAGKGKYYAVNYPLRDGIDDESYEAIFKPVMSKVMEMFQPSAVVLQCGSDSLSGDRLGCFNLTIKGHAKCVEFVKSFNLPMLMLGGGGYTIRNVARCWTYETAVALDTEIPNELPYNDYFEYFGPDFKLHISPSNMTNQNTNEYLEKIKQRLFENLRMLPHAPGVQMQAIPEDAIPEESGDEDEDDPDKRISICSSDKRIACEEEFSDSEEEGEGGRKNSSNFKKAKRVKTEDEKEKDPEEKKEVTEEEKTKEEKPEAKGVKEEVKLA
Chain of Histone deacetylase 4 (P56524 whole entry): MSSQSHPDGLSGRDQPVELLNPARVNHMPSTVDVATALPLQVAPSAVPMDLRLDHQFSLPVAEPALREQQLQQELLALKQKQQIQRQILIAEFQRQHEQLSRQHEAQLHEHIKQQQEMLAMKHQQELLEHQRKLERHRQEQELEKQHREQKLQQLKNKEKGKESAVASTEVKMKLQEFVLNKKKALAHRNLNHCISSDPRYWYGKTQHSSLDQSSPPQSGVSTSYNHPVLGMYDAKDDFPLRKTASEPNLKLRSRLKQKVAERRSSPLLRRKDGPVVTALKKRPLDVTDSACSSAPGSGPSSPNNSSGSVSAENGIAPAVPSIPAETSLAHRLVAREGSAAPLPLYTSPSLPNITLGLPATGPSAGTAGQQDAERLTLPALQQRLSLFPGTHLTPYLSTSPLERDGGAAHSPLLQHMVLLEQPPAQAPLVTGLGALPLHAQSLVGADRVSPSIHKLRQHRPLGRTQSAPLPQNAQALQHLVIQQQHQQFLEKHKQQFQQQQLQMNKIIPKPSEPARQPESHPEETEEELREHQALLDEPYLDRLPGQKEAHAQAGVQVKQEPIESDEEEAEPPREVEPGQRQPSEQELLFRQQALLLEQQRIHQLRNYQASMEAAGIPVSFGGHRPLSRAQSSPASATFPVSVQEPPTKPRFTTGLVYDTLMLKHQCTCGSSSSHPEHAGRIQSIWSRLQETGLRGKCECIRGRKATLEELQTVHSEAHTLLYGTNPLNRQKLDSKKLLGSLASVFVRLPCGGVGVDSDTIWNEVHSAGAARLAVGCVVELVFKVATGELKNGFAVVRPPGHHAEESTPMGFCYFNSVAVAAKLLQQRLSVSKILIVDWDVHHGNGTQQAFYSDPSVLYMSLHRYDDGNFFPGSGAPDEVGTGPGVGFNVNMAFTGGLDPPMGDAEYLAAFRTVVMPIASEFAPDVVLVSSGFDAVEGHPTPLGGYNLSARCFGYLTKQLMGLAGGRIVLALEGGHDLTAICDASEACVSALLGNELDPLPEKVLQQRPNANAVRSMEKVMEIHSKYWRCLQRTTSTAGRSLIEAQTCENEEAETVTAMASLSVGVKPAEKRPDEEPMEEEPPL
Chain of Histone deacetylase 2 (Q92769 whole entry): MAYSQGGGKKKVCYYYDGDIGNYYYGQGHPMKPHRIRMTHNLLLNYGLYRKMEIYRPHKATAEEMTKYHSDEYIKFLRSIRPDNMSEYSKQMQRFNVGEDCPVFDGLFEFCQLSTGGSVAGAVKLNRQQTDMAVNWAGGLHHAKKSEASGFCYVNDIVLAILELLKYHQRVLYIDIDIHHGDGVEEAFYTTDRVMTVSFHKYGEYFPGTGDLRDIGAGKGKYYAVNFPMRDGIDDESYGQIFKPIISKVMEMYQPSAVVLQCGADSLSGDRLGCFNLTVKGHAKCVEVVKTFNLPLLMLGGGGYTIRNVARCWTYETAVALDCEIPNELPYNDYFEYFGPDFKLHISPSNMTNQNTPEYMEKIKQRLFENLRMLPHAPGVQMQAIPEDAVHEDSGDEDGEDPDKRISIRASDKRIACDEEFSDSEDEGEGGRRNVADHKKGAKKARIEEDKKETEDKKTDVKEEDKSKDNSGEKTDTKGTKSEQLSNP

Usually IC50 stands for the concentration at which inhibition is half-maximal. With `CC(C)CCN1CC(=O)N2Cc3c(c4ccccc4n3Cc3ccc(C(=O)NO)cc3)CC2C1=O` (centres undefined), in assay [1], the half-inhibitory concentration (IC50) was determined as 24.1 nM. For the same compound, the inhibition result with MV4-11 [2] is “Active”.

Regarding `CCCN1CC(=O)N2[C@H](C)c3c(c4ccccc4n3Cc3ccc(C(=O)NO)cc3)C[C@H]2C1=O`, the 50% inhibitory concentration (IC50) in assay [1] amounted to 60.7 nM.

Turning to `CCCN1CC(=O)N2Cc3c(c4ccccc4n3Cc3ccc(C(=O)NO)cc3)CC2C1=O` (centres undefined), the inhibition result (in [3]; in the assay on MV4-11 [2]; with MV4-11 [9]; in assay [10]) was “Active” in each case. For the same compound, the IC50 in [1] is 3.73 nM; on Histone deacetylase 1, 8450 nM; on Histone deacetylase 2, 3340 nM; on Histone deacetylase 4, 20500 nM; on Histone deacetylase 8 it was 747 nM; in [4], 39500 nM. For the same compound, the Ratio IC50 in the assay listed under Homo sapiens [5] was 900; in the assay filed under Homo sapiens [6] it was 200; in the assay listed under Homo sapiens [7] it was 2260; in the assay filed under Homo sapiens [8], 5500. Moreover, in assay [11], the inhibition result is “Tde”. For the same compound, the result with MV4-11 [12] and in the assay on MV4-11 [13] was inactive.

Turning to `CCCN1CC(=O)N2[C@H](Cc3c(n(Cc4ccc(C(=O)NO)cc4)c4ccccc34)[C@H]2C)C1=O`, in [1], the 50% inhibitory concentration (IC50) was 18.5 nM.

With `CCCN1CC(=O)N2Cc3c(c4cc(OC)ccc4n3Cc3ccc(C(=O)NO)cc3)CC2C1=O` (centres undefined), the 50% inhibitory concentration (IC50) in [1] is 1.66 nM.

Turning to `CCCCN1C(=O)C2Cc3c(n(Cc4ccc(C(=O)NO)cc4)c4ccccc34)CN2C1=O` (centres undefined), the IC50 in assay [1] came out at 9.32 nM.

Take `CN1CC(=O)N2Cc3c(c4ccccc4n3Cc3ccc(C(=O)NO)cc3)CC2C1=O` (centres undefined): the IC50 in assay [1] was 13.6 nM.

Turning to `CCN1CC(=O)N2Cc3c(c4ccccc4n3Cc3ccc(C(=O)NO)cc3)CC2C1=O` (centres undefined), the IC50 in assay [1] was 8.03 nM. Also, the inhibition result with MV4-11 [2] was “Active”.

On to `CCCN1CC(=O)N2[C@@H](Cc3c(n(Cc4ccc(C(=O)NO)cc4)c4ccccc34)[C@@H]2C)C1=O`, for which the half-maximal inhibitory concentration (IC50) in [1] stood at 83.5 nM.

For `CCCN1C(=O)C2Cc3c(n(Cc4ccc(C(=O)NO)cc4)c4ccccc34)CN2C1=O` (centres undefined), in assay [1], the half-maximal inhibitory concentration (IC50) was 10.1 nM. The inhibition result in the assay on MV4-11 [2] is “Active”.

In the case of `CC(C)CN1CC(=O)N2Cc3c(c4ccccc4n3Cc3ccc(C(=O)NO)cc3)CC2C1=O` (centres undefined), the IC50 in assay [1] was determined as 3.78 nM. For the same compound, the inhibition result in the assay with MV4-11 [2] was “Active”.

For the compound `CN1C(=O)C2Cc3c(n(Cc4ccc(C(=O)NO)cc4)c4ccccc34)CN2C1=O` (centres undefined), in assay [1], the IC50 came to 2.38 nM.

In the case of `CCCN1CC(=O)N2Cc3c(c4cc(O)ccc4n3Cc3ccc(C(=O)NO)cc3)CC2C1=O` (centres undefined), in assay [1], the IC50 turned out to be 0.89 nM.

With `CCCN1CC(=O)N2Cc3c(c4cc(OCc5ccccc5)ccc4n3Cc3ccc(C(=O)NO)cc3)CC2C1=O` (centres undefined), the IC50 in [1] turned out to be 1.25 nM.

Turning to `CCN1C(=O)C2Cc3c(n(Cc4ccc(C(=O)NO)cc4)c4ccccc34)CN2C1=O` (centres undefined), the half-inhibitory concentration (IC50) in assay [1] was 4.54 nM. In the assay on MV4-11 [2], the inhibition entry was “Active”.

As for `Cc1[nH]c2ccccc2c1CCNCc1ccc(/C=C/C(=O)NO)cc1`, the result with MV4-11 [14] was Active.

For the compound `CCCCN1CC(=O)N2Cc3c(c4ccccc4n3Cc3ccc(C(=O)NO)cc3)CC2C1=O` (centres undefined), in assay [1], the half-inhibitory concentration (IC50) came out at 3.26 nM. In the assay on MV4-11 [2], the inhibition result was “Active”.

For `Nc1ccccc1NC(=O)c1ccc(CNC(=O)OCc2cccnc2)cc1`, in the assay on MV4-11 [2], the inhibition result was “Active”. Besides, the outcome in the assay with MV4-11 [15] was Active.

Consider `CCCN1CC(=O)N2[C@H](Cc3c(n(Cc4ccc(C(=O)NO)cc4)c4ccccc34)[C@@H]2C)C1=O`, for which the concentration for half-maximal inhibition (IC50) in [1] was determined as 1.8 nM; at Histone deacetylase 1, 1050 nM; at Histone deacetylase 2 it was 1870 nM; on Histone deacetylase 4, 1440 nM; on Histone deacetylase 8, 168 nM; in assay [4] it was 1510 nM. The outcome in the assay on MV4-11 [12] and with MV4-11 [13] was inactive.

For the origin of these results see ChEMBL document CHEMBL4270518 (Eur J Med Chem, 2018).
